Entries after “also recorded” stand apart in the source; their conditions may differ. Like-named read-outs stand apart in the source and are kept apart here.
Assays:
[1] = system: Pancreas cultured human cancer cells; conditions: mean among sensitive cell lines, cited from earlier work
[2] = system: Neuroblastoma cultured human cancer cells; conditions: second panel, mean among sensitive cell lines, read-out: IC50 mean +/− SD; cited from earlier work
[3] = system: Sarcoma cultured human cancer cells; conditions: second panel, mean among sensitive cell lines, read-out: IC50 mean +/− SD; cited from earlier work
[4] = system: DLBCL / soft tissue sarcoma in patients; experiment: Phase I trial efficacy assessment (CT/PET imaging, Lugano criteria, RECIST); format: in vivo, human
Method: Patients 1 and 2 had baseline cross sectional and PET imaging, and patient 3 had baseline cross sectional imaging. Protocol defined imaging was CT every 2 cycles and PET every 6 cycles or as clinically indicated. Evaluation of response was by the Lugano classification criteria for the evaluation of non-Hodgkin lymphoma, and […] for the evaluation of soft tumors. Computed tomography was performed on patient 2 on two occasions, immediately prior to treatment (pre-treatment scan obtained Oct. 29, 2021) and after two 28-day cycles of oral PCLX-001 at a daily dose of 20 mg by mouth (post-treatment scan obtained Dec. 30, 2021). Both scans were done on the same scanner using the same techniques including the use of intravenous contrast dye. The three pairs of pre and post treatment scans are of the same cross section of the patient, in order to identify a clinical trial target lesion of a liver metastasis in the subcapsular region of segment five of the liver. […] FIG. 2A-4F.

[5] = system: kinases (KINOMEscan); conditions: KINOMEscan (Fremont, CA, USA); cited from earlier work
[6] = PK and maximally tolerated dose, daily oral administration, mouse; format: in vivo
Method: The allometric scaling is based on toxicity, and the toxicity is that which establishes the Maximally Tolerated Dose (MTD) in animal studies. In mice, one toxicity study established the MTD to be 35 mg/kg. […] It was not expected that, as shown herein, doses markedly lower than 180 mg daily in humans would have anticancer effects.
[…]. Possible explanations for this finding include hysteresis loops (7), and flip-flop pharmacokinetics (7).
(§1) Allometric scaling is a means by which PK results from animal studies can be used to predict human drug exposure for a range of drug doses. In this case, allometric scaling was performed using representative values from the PK studies with daily oral PCLX-001 administration for 14 or 28 days in non-human species. These inputs were analyzed with www.truedose.app to predict the Maximally Tolerated Dose we would see in this phase one clinical trial (FIG. 2). […]

[7] = Oral bioavailability in animal models; format: in vivo
[8] = GLP non-clinical safety testing; cited from earlier work
[9] = system: cancer cells (hematologic, lymphoma and solid cancer cell lines); conditions: tissue culture; hematological and solid cancer cell lines; cited from earlier work
[10] = in vivo; conditions: rat, plasma, po
[11] = system: Brain cultured human cancer cells; conditions: second panel, mean among sensitive cell lines, read-out: IC50 mean +/− SD; cited from earlier work
[12] = Allometric scaling from animal maximally tolerated doses to predict human daily oral MTD (www.truedose.app)
Method: The allometric scaling is based on toxicity, and the toxicity is that which establishes the Maximally Tolerated Dose (MTD) in animal studies. In mice, one toxicity study established the MTD to be 35 mg/kg. […]. […] It was not expected that, as shown herein, doses markedly lower than 180 mg daily in humans would have anticancer effects.
as §1

[13] = system: Lymphoma cultured human cancer cells; conditions: mean among sensitive cell lines, cited from earlier work; for IC50: read-out: IC50 mean +/− SD
[14] = Phase I trial plasma pharmacokinetics, two-compartment model (PK Solver 2.0); format: in vivo; conditions: human, oral, 20 mg
Method: A different pharmacokinetic modeling program was used in the publication PK Solver 2.0 freeware (https://www.boomer.org/boomer/software/pksolver.zip; accessed 26 Nov. 2021) was used to determine the single dose pharmacokinetic parameters using a two-compartment model. […] As noted above, non-compartmental pharmacokinetic analysis was performed using Phoenix WinNonlin 8.3 using trapezoidal rule and linear up log down methodology. WinNonlin was allowed to pick optimal terminal phases.
Pharmacokinetic analysis was conducted as described above. […] These parameters are all supportive of a single daily oral dosing schedule for PCLX-001.

[15] = system: Ovary cultured human cancer cells; conditions: second panel, mean among sensitive cell lines, read-out: IC50 mean +/− SD; cited from earlier work
[16] = biological target: hERG (Homo sapiens, UniProt Q12809); experiment: Preclinical hERG interaction testing
[17] = system: Prostate cultured human cancer cells; conditions: second panel, mean among sensitive cell lines, read-out: IC50 mean +/− SD; cited from earlier work
[18] = system: Lung cultured human cancer cells; conditions: mean among sensitive cell lines, cited from earlier work; for IC50: read-out: IC50 mean +/− SD
[19] = system: Myeloma cultured human cancer cells; conditions: first panel, mean among sensitive cell lines, read-out: EC50 mean +/− SD; cited from earlier work
[20] = biological target: human NMT2 (Homo sapiens, UniProt O60551); experiment: Inhibition of N-myristoyltransferase NMT2; format: biochemical
[21] = system: Colon cultured human cancer cells; conditions: mean among sensitive cell lines, read-out: IC50 mean +/− SD, cited from earlier work
[22] = system: Bladder cultured human cancer cells; conditions: mean among sensitive cell lines (EC50<500 nM or IC50<500 nM), cited from earlier work
[23] = system: implanted human tumors; experiment: Anticancer efficacy in mice bearing implanted human tumors; format: in vivo, mouse; conditions: in any given experiment
[24] = system: Melanoma cultured human cancer cells; conditions: mean among sensitive cell lines, cited from earlier work; for IC50: read-out: IC50 mean +/− SD
[25] = first panel, read-out: EC50 mean +/− SD
[26] = second panel, read-out: IC50 mean +/− SD
[27] = Table 1B third line, Patient 115-002-001, Day 15 as printed

Chain of human NMT2 (O60551 whole entry): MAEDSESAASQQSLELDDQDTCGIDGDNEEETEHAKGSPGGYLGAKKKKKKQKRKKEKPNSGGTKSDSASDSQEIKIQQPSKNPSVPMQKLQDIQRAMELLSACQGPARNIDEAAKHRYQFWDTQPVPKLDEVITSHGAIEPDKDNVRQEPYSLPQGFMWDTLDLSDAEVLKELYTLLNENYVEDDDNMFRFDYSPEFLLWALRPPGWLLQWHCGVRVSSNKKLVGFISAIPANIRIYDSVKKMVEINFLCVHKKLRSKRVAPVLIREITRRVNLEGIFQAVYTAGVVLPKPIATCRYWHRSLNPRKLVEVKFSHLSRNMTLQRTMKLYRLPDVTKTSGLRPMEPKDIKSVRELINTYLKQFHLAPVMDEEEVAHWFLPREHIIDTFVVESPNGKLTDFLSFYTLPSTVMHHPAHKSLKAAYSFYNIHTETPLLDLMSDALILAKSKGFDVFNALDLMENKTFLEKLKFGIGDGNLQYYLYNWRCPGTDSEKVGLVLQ
Chain of hERG (Q12809 whole entry): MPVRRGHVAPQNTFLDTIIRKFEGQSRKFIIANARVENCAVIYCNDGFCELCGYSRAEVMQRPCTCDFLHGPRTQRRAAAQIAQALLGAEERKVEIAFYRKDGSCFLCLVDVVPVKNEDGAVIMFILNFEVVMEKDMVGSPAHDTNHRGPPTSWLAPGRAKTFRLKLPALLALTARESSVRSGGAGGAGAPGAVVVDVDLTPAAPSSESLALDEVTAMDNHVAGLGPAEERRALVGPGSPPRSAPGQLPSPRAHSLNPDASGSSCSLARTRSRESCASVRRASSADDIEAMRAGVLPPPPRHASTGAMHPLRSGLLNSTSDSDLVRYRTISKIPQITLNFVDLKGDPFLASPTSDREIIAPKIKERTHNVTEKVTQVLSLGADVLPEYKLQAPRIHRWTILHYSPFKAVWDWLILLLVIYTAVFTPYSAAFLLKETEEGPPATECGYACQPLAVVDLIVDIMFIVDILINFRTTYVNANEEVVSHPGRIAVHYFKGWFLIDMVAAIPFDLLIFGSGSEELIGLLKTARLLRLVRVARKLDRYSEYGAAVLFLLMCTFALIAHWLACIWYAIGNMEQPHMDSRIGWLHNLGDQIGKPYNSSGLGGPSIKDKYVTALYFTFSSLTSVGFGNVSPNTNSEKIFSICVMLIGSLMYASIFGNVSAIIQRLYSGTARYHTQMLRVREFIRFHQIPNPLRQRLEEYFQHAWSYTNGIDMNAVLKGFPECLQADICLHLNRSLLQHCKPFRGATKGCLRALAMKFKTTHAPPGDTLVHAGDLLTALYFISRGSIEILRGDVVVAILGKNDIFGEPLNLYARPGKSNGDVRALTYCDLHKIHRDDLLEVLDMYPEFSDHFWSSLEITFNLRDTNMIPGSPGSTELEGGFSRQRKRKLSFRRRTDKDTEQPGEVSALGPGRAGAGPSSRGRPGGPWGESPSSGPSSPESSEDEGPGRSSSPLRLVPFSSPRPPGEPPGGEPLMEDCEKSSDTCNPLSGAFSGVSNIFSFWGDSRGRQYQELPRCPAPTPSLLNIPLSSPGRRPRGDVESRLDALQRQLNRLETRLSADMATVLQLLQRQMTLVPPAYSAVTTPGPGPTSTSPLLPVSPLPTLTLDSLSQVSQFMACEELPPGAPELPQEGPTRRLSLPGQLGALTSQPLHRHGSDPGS

Cc1c(NS(=O)(=O)c2c(Cl)cc(-c3ccnc(N4CCNCC4)c3)cc2Cl)c(CC(C)C)nn1C [PCLX-001, 2,6-dichloro-N-(3-isobutyl-1,5-dimethyl-1H-pyrazol-4-yl)-4-(2-(piperazin-1-yl)pyridin-4-yl)benzene sulfonamide]
EC50 [1, 25]: 109 ± 90 nM
IC50 [1, 26]: 77.7 ± 13.7 nM
IC50 [2]: 230 ± 183 nM
IC50 [3]: 198 ± 134 nM
disease response (Lugano criteria, computed tomography day 28) ([4]; Patient 1, refractory relapsed DLBCL, 20 mg oral daily): disease progression; also recorded: progression of the volume of lymphoma
response in lymph nodes ([4]; Patient 2, DLBCL, 20 mg oral daily): progressive disease in lymph nodes
response of hepatic metastatic disease on CT ([4]; Patient 2, DLBCL, 20 mg oral daily, about two months): marked reduction of volume of hepatic metastatic disease; also recorded: marked tumor response in hepatic metastases; also recorded: marked tumor regression; also recorded: regression of a malignant lesion in the liver
response assessment scans ([4]; Patient 3, leiomyosarcoma, after two 28 day cycles): progressive disease
off target kinase inhibition [5]: no significant off target kinase inhibition
Maximally Tolerated Dose daily oral administration [6]: 35 mg/kg
Cmax ([6]; in vivo, po): 46000 ng/mL
half-life ([6]; in vivo, po): 1.6 h
oral bioavailability [7]: complete oral bioavailability
dose limiting toxicity [8]: diarrhea was dose limiting
inhibition of cancer cell growth in vitro [9]: inhibition of cell growth; also recorded: markedly inhibited
Cmax [10]: 3110 ng/mL
half-life [10]: 1 h
IC50 [11]: 153 ± 63.5 nM
Allometric prediction of human MTD ([12]; scaled from dog MTD): 137 mg mg/70 kg
Allometric prediction of human MTD ([12]; scaled from mouse MTD): 180 mg mg/70 kg
Allometric prediction of human MTD ([12]; scaled from rat MTD): 1300 mg mg/70 kg
EC50 [13, 25]: 80.9 nM
IC50 ([13]; second panel): 138 ± 55.8 nM
IC50 ([13]; third panel): 230 ± 107 nM
AUC(0-inf) ([14]; Table 1B fourth line, Patient 115-002-001, Day 15): 2640 ng·h/mL
AUC(0-inf) [14, 27]: 2360 ng·h/mL
AUC(0-t) [14, 27]: 1700 ng·h/mL
Cmax [14, 27]: 278 ng/mL
half-life [14, 27]: 16.4 h
IC50 [15]: 76.7 ± 7.6 nM
hERG interaction [16]: no significant hERG interaction
IC50 [17]: 85.4 ± 59.2 nM
EC50 [18, 25]: 151 ± 88.2 nM
IC50 ([18]; second panel): 184 ± 82.8 nM
IC50 ([18]; third panel): 154 ± 111 nM
EC50 [19]: 144 ± 44.7 nM
inhibition of human NMT2 [20]: potent
IC50 ([21]; second panel): 158 ± 27.4 nM
IC50 ([21]; third panel): 210 ± 85.4 nM
EC50 [22, 25]: 155 ± 49.7 nM
IC50 [22, 26]: 172 ± 79.8 nM
effective dose relative to the dose that produced mouse toxicity [23]: greater than 50%
EC50 [24, 25]: 134 ± 53.9 nM
IC50 ([24]; second panel): 208 ± 99.5 nM
IC50 ([24]; third panel): 157 ± 192 nM

From patent publication US20250161299A1, “ORAL PCLX-001 IN THE TREATMENT OF HUMAN CANCER” (PACYLEX PHARMACEUTICALS INC., priority 2022, published 2025)
